We go through five compounds from patent US8158674B2, “Chalcogenoxanthylium dyes for purging blood pathogens and for photodynamic therapy” (The Research Foundation of State University of New York, priority 2004, dated 2012).

Where “and” joins values, the source holds several entries; their conditions need not be identical. Equal values may be shown once. Entries after “also recorded” stand apart in the source; their conditions may differ. Read-outs that look alike come from different tables or passages of the source. A value given as a limit tells only on which side of the number the result lay.

One data set has as its target Pgp (Homo sapiens, UniProt P08183). Particulars: cited from earlier work.
The nature of data set [1]: Quantum yield for generation of singlet oxygen (direct luminescence detection, MeOH). The data set is classed as physicochemical. Particulars: rose bengal as a standard.
Data set [2] in a line: Fluorescence quantum yields and radiative lifetimes. The data set is classed as physicochemical. Conditions: for Quantum yield for fluorescence φF ± sd: rhodamine 6G as a standard.
The subject of data set [3] is Pgp-expressing CR1R12 cells. The data set can be described thus: Dye uptake into cell monolayers, CR1R12. Particulars: for Effect of verapamil on intracellular dye uptake: dye 1×10−5 M, 7×10−6 M verapamil 2 h before dye. The data set is classed as cell-based, Chinese hamster.
Data set [4] concerns AUXB1 cells. Kind of data set: Dye uptake into cell monolayers, AUXB1. Format: cell-based, Chinese hamster. Conditions: dye 1×10−5 M for 1 h, 7×10−6 M verapamil.
Data set [5] can be described thus: n-Octanol/water partition coefficient. Particulars: pH-6 phosphate buffer as the aqueous phase.
The nature of data set [6]: Reduction potential by cyclic voltammetry. Particulars: in CH2Cl2, 0.2N Bu4NBF4; vs. ferrocene/ferrocinium couple (E° = +0.40 V).
The nature of data set [7]: Absorption and fluorescence maxima in MeOH. Conditions: for Fluorescence maximum λF: excitation at 532 nm; for Bathochromic shift in λmax: compared to TMR-O.
Data set [8] relates to CR1R12 cells. Kind of data set: Photoradiation of cell cultures (cell viability), CR1R12. Particulars: for Phototoxicity (cell viability): 5.0 J cm−2 light.
Procedure: (§1) Cell lines were maintained in passage culture on 60-mm diameter polystyrene dishes (Corning Costar, Corning, N.Y.) in 4.0 mL Minimum Essential Medium (α-MEM) supplemented with 10% fetal bovine serum (FBS), 50 units mL^−1 penicillin G, 50 ug ml^−1 streptomycin and 1.0 ug mL^−1 Fungizone® (complete medium). Only cells from passages 1-10 were used for experiments. A stock of cells, passages 1-4, were maintained at −86° C. to initiate the experimental cultures. Cultures were maintained at 37° C. in a 5% CO2 humidified atmosphere (Forma Scientific, Marietta, Ohio). […] Cell counts were performed using a particle counter (Model ZM, Coulter Electronics, Hialeah, Fla.).
(§2) Photoradiation of Cell Cultures: Cell lines, AUXB1 or CR1R12, were seeded on 96-well plates in 200 μL/well α-MEM at 1-4×10^4 cells/well. Rhodamine analogues were then added directly to the cell culture medium at various concentrations and incubated for 2 h in the dark as above. The medium was then removed and 200 μL α-MEM minus FBS and phenol red (clear medium) were added to each well. One plate, with the lid removed, was then exposed to 350-750 nm light delivered at 1.4 mW cm^−2 for 1 h (5.0 J cm^−2) from a filtered halogen source while a parallel plate was kept in the dark during the irradiation period. Immediately following irradiation the clear medium was replaced with complete medium and the monolayers were incubated for an additional 24-h period. Subsequently, cells were trypsinized and counted using the Coulter counter to determine cell viability. Determination of cell viability by cell counting is performed according to an earlier method. […] Briefly, cells that detach from the surface of a culture plate stain with trypan blue, i.e. are nonviable, while all cells that remain attached to the surface exclude trypan blue, 100% viable. We were unable to seed new culture plates with cells that detached from the surface after treatment, while cells that remained attached after treatment continued to grow and multiply. Thus, we count only those cells that remain attached to the culture plate surface after treatment and compare those numbers with the cell numbers obtained from control cells, cells not exposed to either dye or light. Data are then expressed as percent cell viability, treated cell counts/control cell counts.
For a further data set, the system named is extracellular VSV. The data set is classed as cell-based.
A further data set relates to intracellular VSV. Format: cell-based.
The target of a further data set is Pgp in CR1R12 cells (Cricetulus griseus, UniProt P21448). Kind of data set: Calcein AM uptake, CR1R12. Format: cell-based, Chinese hamster. Particulars: dye 1×10−5 M for 2 h in the dark.
The subject of data set [9] is AUXB1 cells. Kind of data set: Calcein AM uptake, AUXB1. Format: cell-based, Chinese hamster. Conditions: higher concentrations of dye plus light exposure.
For data set [10] the following is noted: pH 6.
Data set [11] deals with CR1R12 cells.
Procedure: as §1, §2
The test system of data set [12] is AUXB1 cells.
Procedure: as §1
Photoradiation of Cell Cultures: Cell lines, AUXB1 or CR1R12, were seeded on 96-well plates in 200 μL/well α-MEM at 1-4×10^4 cells/well. Rhodamine analogues were then added directly to the cell culture medium at various concentrations and incubated for 2 h in the dark as above. The medium was then removed and 200 μL α-MEM minus FBS and phenol red (clear medium) were added to each well. […] Subsequently, cells were trypsinized and counted using the Coulter counter to determine cell viability. […] Data are then expressed as percent cell viability, treated cell counts/control cell counts.
The mark [13] stands for this setting: over a wide range of concentrations.

Chain of Pgp (P08183 whole entry): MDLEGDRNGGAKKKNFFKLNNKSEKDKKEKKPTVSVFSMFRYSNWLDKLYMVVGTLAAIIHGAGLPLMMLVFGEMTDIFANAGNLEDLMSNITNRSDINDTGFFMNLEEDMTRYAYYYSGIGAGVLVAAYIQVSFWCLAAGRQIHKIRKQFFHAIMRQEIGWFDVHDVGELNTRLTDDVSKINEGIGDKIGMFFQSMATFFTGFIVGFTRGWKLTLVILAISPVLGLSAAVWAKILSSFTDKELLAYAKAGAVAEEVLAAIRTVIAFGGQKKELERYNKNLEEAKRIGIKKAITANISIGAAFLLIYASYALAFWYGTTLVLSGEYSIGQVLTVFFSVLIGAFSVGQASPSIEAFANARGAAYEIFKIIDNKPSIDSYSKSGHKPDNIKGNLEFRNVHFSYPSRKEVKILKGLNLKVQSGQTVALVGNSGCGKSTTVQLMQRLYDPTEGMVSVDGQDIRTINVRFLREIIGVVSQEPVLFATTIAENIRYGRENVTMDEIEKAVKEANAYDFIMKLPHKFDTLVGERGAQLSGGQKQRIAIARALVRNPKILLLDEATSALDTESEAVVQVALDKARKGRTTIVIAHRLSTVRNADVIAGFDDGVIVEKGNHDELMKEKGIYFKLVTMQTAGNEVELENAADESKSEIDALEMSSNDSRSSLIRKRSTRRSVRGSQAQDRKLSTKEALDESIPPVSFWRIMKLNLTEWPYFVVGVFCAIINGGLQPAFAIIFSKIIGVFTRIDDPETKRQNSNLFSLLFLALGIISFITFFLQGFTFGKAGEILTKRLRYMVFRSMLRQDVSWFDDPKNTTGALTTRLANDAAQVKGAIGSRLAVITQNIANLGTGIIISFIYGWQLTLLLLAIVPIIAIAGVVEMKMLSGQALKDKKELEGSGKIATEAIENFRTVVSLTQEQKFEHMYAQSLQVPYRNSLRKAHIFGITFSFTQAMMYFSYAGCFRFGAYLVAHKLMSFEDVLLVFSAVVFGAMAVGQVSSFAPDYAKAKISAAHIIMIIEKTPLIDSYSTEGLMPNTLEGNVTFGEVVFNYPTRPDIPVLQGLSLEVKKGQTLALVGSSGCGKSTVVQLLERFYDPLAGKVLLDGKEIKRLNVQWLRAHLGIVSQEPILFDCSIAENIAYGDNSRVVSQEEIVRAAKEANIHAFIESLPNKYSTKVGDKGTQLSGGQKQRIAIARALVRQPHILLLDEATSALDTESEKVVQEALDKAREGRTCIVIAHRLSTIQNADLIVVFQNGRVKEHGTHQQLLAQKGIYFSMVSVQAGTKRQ
Chain of Pgp in CR1R12 cells (P21448 whole entry): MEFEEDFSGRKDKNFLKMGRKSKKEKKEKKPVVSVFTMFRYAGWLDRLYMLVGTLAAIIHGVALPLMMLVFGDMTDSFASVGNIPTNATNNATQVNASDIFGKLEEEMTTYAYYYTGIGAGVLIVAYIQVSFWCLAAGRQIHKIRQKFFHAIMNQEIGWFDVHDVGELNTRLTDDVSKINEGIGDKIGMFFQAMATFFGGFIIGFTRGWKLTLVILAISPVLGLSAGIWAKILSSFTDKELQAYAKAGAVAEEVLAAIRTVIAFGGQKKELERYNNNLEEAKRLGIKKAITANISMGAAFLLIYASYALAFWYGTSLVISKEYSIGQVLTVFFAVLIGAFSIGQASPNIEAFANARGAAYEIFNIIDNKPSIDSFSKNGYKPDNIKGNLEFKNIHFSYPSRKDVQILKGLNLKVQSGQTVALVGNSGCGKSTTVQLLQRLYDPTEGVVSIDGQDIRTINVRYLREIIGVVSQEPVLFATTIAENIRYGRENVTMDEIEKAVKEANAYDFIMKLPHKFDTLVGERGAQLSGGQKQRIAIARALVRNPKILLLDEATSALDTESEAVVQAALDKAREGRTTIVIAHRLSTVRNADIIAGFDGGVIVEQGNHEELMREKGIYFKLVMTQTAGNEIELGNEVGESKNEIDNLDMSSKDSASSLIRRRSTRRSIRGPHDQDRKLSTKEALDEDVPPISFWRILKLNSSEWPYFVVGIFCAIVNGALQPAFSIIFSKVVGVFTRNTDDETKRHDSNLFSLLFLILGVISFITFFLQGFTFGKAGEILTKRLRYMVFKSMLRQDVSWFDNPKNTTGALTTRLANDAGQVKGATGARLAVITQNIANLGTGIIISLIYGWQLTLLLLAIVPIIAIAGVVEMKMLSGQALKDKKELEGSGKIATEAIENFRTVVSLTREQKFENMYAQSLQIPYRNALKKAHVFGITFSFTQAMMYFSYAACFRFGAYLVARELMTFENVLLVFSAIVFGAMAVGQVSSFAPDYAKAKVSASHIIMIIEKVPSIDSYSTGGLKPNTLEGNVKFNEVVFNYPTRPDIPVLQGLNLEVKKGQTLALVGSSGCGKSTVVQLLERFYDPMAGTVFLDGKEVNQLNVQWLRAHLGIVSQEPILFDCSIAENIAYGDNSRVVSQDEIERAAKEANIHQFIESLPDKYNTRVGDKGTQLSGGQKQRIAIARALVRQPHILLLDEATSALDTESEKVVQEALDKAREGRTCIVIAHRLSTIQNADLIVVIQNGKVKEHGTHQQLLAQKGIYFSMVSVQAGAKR

With `COC(=O)c1ccccc1-c1c2ccc(=N)cc-2oc2cc(N)ccc12` [Rh123, rhodamine 123], at Pgp, the “Inhibition of Pgp function” value is “do not inhibit Pgp function” and the Pgp transport substrate result is “transport substrates for Pgp”.
As for `CN(C)c1ccc2c(-c3ccccc3)c3ccc(=[N+](C)C)cc-3oc2c1` [TMR-O, Tetramethylrosamine, reference compound], the “Quantum yield for generation of singlet oxygen φ(1O2) ± sd” value in [1] was 0.08 and 0.08 ± 0.01. For the same compound, in data set [2], the “Radiative lifetime τrad” value is recorded as 2.1±0.1 ns; the “Quantum yield for fluorescence φF ± sd” value is 0.84 and 0.84 ± 0.01. Besides, the “Effect of verapamil on intracellular dye uptake” value in data set [3] was “verapamil enhances the uptake; also recorded: significantly enhanced”. In the data set with AUXB1 cells [4], the “Intracellular dye accumulation in absence vs presence of verapamil” value is recorded as “similar”. Further, on Pgp, the “Inhibition of Pgp function” value is “do not inhibit Pgp function” and the Pgp transport substrate entry was “transport substrates for Pgp”. The “n-Octanol/water partition coefficient log P” value in data set [5] stood at 1.5. For the same compound, the “Reduction potential E°” value in data set [6] is −0.94 V. In data set [7], the “Absorption maximum λmax” value is listed as 552 nm, the “log ε at λmax” value is 4.92 and the “Fluorescence maximum λF” value is given as 575 nm. Moreover, the “Phototoxicity (cell viability)” value with CR1R12 cells [8] (after 2 h 7×10−6 M verapamil) is recorded as “no significant phototoxicity”. For the same compound, the “Phototoxicity (cell viability)” value in the data set with CR1R12 cells [8] (without verapamil) is reported as “no significant phototoxicity”. Moreover, in the data set on CR1R12 cells [8] (same conditions without light), the “Cell viability, dye alone in the dark” value is listed as “no significant loss in cell viability”.
Consider `CN(C)c1ccc2[s+]c3ccc(N(C)C)cc3c(-c3ccccc3)c2c1.[Cl-]` [TMR-S, 2,7-Bis-N,N-dimethylamino-9-phenylthioxanthylium Chloride], for which the “Quantum yield for generation of singlet oxygen φ(1O2) ± sd” value in [1] was 0.21 and 0.21 ± 0.02. For the same compound, in data set [2], the “Radiative lifetime τrad” value was 1.5±0.1 ns; the “Quantum yield for fluorescence φF ± sd” value was 0.44 and 0.44 ± 0.01. Moreover, in the data set with extracellular VSV (5 μM, 7.4 J cm−2 light, 20% hematocrit red cells), the “Inactivation of extracellular VSV” value was “More than 8 log10”. Moreover, the “Inactivation of intracellular VSV” value in the data set on intracellular VSV (50 μM and 7.4 J cm−2) is recorded as 1.5 log10. Besides, the “Increase in dye uptake in the presence of verapamil” value in data set [3] (dye 1×10−5 M for 1 h, 7×10−6 M verapamil) is given as “more than 3 fold”. Further, in data set [3], the “Effect of verapamil on intracellular dye uptake” value is recorded as “significantly enhanced”. For the same compound, the “Intracellular dye accumulation in absence vs presence of verapamil” value in the data set on AUXB1 cells [4] is recorded as “similar”. The “Change in intracellular accumulation of CAM” value on Pgp in CR1R12 cells is listed as “no significant change”. Also, the CAM uptake entry with AUXB1 cells [9] is recorded as “virtually abolished CAM uptake”. For the same compound, in data set [10], the “n-Octanol/water partition coefficient log P” value stood at 1.2. Besides, the “Cell viability, dye alone in the dark” value with CR1R12 cells [11] is recorded as “no significant loss in cell viability”. In addition, the “Reduction potential E°” value in [6] is −0.79 V. In addition, in data set [7], the “Absorption maximum λmax” value turned out to be 571 nm, the “log ε at λmax” value came to 4.70, the “Bathochromic shift in λmax” value was found to be 20 nm and the “Fluorescence maximum λF” value is reported as 599 nm. The “Phototoxicity (cell viability)” value in the data set with CR1R12 cells [8] (after 2 h 7×10−6 M verapamil) is recorded as “significant cytotoxicity”.
On to `CN(C)c1ccc2[se+]c3ccc(N(C)C)cc3c(-c3ccccc3)c2c1.[Cl-]` [TMR-Se, 2,7-Bis-N,N-dimethylamino-9-phenylselenoxanthylium Chloride], for which the “Quantum yield for generation of singlet oxygen φ(1O2) ± sd” value in [1] is 0.87 and 0.87 ± 0.01. In data set [2], the “Radiative lifetime τrad” value is “approximately 50 ps”; the “Quantum yield for fluorescence φF ± sd” value was 0.009 and 0.009 ± 0.001. For the same compound, in the data set with extracellular VSV (1 μM, 2 J cm−2 light, 20% hematocrit red cells), the “Inactivation of extracellular VSV” value is on record as over 7.4 log10. Besides, in the data set with extracellular VSV (5 μM, 2 J cm−2 light, 45% hematocrit red cells), the “Inactivation of extracellular VSV” value is over 7.4 log10. In addition, the “Inactivation of intracellular VSV” value in the data set on intracellular VSV (under the TMR-Se conditions of b117 (1-5 μM, 2 J cm−2)) worked out at 0.5 log10. Besides, on Pgp in CR1R12 cells, the “Change in intracellular accumulation of CAM” value is “no significant change”. In the data set with AUXB1 cells [9], the CAM uptake result was “virtually abolished CAM uptake”. Moreover, the “n-Octanol/water partition coefficient log P” value in [10] is 1.1. For the same compound, the “Cell viability, dye alone in the dark” value in the data set on CR1R12 cells [11] is recorded as “no significant loss in cell viability”. The “Cell viability, dye alone in the dark” value in the data set with AUXB1 cells [12] was “no significant loss in cell viability”. Besides, the “Phototoxicity (cell viability)” value in the data set with AUXB1 cells [12] (AUXB1 cells, light, with or without 7×10−6 M verapamil) is recorded as “equally susceptible to phototoxicity”. Also, in data set [6], the “Reduction potential E°” value is −0.77 V. In addition, in [7], the “Absorption maximum λmax” value came to 582 nm, the “log ε at λmax” value worked out at 4.84, the “Bathochromic shift in λmax” value is 30 nm and the “Fluorescence maximum λF” value is 608 nm. Also, the “Phototoxicity (cell viability)” value with CR1R12 cells [8] (after 2 h 7×10−6 M verapamil) is “significant cytotoxicity; also recorded: significant phototoxicity”.
Take `CN(C)c1ccc2sc3ccc(N(C)C)cc3c(=O)c2c1` [compound 2]: the Extracellular virucidal activity in the data set on extracellular VSV (setting [13]) is on record as under 2.5 log10. In the data set on intracellular VSV (setting [13]), this compound registered an Intracellular virucidal activity of under 0.5 log10.
